In patent US10596268B2, “Conjugate of dezocine and polyethylene glycol” (JenKem Technology Co., Ltd. (Beijing), priority 2016, dated 2020):

Experiments:
[1] = in vivo; cited from earlier work
CFA rat model = assay: Pharmacodynamic experiment: Frey's hair pain threshold in CFA rat model; assay type: in vivo, SD rats; conditions: oral 10 mg/kg; for Pain threshold value, Frey's hair: mean ± standard deviation
[2] = Pharmacokinetic experiment: drug concentration in plasma of SD rats after oral administration (LC-MS/MS); conditions: 10 mg/kg; for AUC(0-t) / Cmax / Tmax / half-life: male, SD, rat, po; for AUClast (Plasma) / Cmax (Plasma) / t1/2 (Plasma) / tmax (Plasma): SD rats, oral
[3] = Pharmacokinetic experiment: drug concentration in brain tissue of SD rats after oral administration (LC-MS/MS); conditions: 10 mg/kg; for AUClast (Brain) / Cmax (Brain) / AUClast Ratio (Brain/Plasma) / t1/2 (Brain) / tmax (Brain): SD rats, oral; for AUClast (Brain) / Cmax (Brain) / t1/2 (Brain) / tmax (Brain): brain tissue; for Kp / Tmax / half-life: male, SD, rat, po; for Kp: brain and plasma; for Tmax / half-life: brain
[4] = 0 h (basal value before administration)

Structure (SMILES) | Pain threshold value, Frey's hair (CFA rat model; [4]) [g] | Pain threshold value, Frey's hair (CFA rat model; 0.25 h after administration) [g] | Pain threshold value, Frey's hair (CFA rat model; 2 h after administration) [g] | Pain threshold value, Frey's hair (CFA rat model; 6 h after administration) [g] | Pain threshold value, Frey's hair (CFA rat model; 24 h after administration) [g] | AUC(0-t) [2] [ng·h/mL] | Cmax [2] [ng/mL] | Tmax [2] [h] | half-life [2] [h] | AUClast (Brain) [3] [ng·h/g] | Cmax (Brain) [3] [ng/g] | Kp [3] | Tmax [3] [h] | half-life [3] [h] | AUClast (Plasma) [2] [ng·h/mL] | Cmax (Plasma) [2] [ng/mL] | t1/2 (Plasma) [2] [h] | tmax (Plasma) [2] [h] | AUClast Ratio (Brain/Plasma) [3] | t1/2 (Brain) [3] [h] | further results
C[C@@]12CCCCC[C@@H](Cc3ccc(O)cc31)[C@@H]2N [JK-2215D00, 13-amino-5,6,7,8,9,10,11,12-octahydro-5-methyl-5,11-methylenebenzocyclodecen-3-ol, reference compound] | 7.7 ± 1.1 | 9.8 ± 1.0 | 10.2 ± 2.7 | 9.2 ± 1.4 | 7.5 ± 1.8 | 232 | 193 | 1 | 1.41 | 267 | 221 | 1.15 | 1 | 2.05 | – | – | – | – | – | – | analgesic effect relative to pethidine [1]: 5-9 times; average peak concentration at which adverse reactions occur [1]: 45 µg/L; blood concentration producing a potent analgesic effect [1]: 5 to 9 µg/L; analgesic effect at 6 h after administration (CFA rat model; 6 h): not significant
COCCOCCOCCOCCOCCOCCOc1ccc2c(c1)C1(C)CCCCCC(C2)C1N (stereo not drawn) [JK-2215D01, Monomethoxyhexaethylene Glycol-Dezocine Conjugate] | 7.6 ± 0.8 | 8.7 ± 1.3 | 9.1 ± 1.3 | 8.7 ± 1.1 | 7.8 ± 1.4 | – | – | – | – | 925 | 147 | – | – | – | 1366 | 345 | 4.33 | 3 | 0.734 | 17.6 | tmax (Brain) [3]: 8 h
COCCOCCOCCOCCOCCOCCN[C@H]1[C@H]2CCCCC[C@]1(C)c1cc(O)ccc1C2 [JK-2215D02, Monomethoxyhexaethylene Glycol-Dezocine Conjugate] | 7.8 ± 0.8 | 10.3 ± 1.2 | 12.1 ± 1.5 | 13.2 ± 0.9 | 10.7 ± 1.5 | – | – | – | – | 993 | 166 | – | – | – | 1312 | 339 | 4.45 | 3 | 0.757 | 18.7 | tmax (Brain) [3]: 8 h
C[C@@]12CCCCC[C@@H](Cc3ccc(O)cc31)[C@@H]2NCCOCCOCCOCCOCCN[C@H]1[C@H]2CCCCC[C@]1(C)c1cc(O)ccc1C2 [JK-2215D03, Pentaethylene Glycol-Dezocine Conjugate] | 7.7 ± 1.4 | 9.2 ± 1.4 | 11.2 ± 2.0 | 11.4 ± 0.9 | 10.6 ± 2.0 | 1230 | 344 | 2 | 4.12 | 813 | 129 | 0.659 | 7 | 19.7 | – | – | – | – | – | – | –
